Experimental data published in PubChem BioAssay (NCI).
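Briefly, cells in 96-well plates were exposed to five compound concentrations for 48 h, and endpoints were estimated by linear interpolation. At the GI50, growth is halved. The concentration for full growth arrest is given as TGI.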

Legend:
Assay in all cases: growth of human tumour cells (NCI), 48 h
HOP-62 NSCLC = test system: HOP-62 NSCLC
RPMI-8226 leukemia = test system: RPMI-8226 leukemia
OVCAR-5 ovarian = test system: OVCAR-5 ovarian
NCI/ADR-RES ovarian = test system: NCI/ADR-RES ovarian
LOX IMVI melanoma = test system: LOX IMVI melanoma
NCI-H226 lung = test system: NCI-H226 lung
HCT-116 colon = test system: HCT-116 colon
OVCAR-8 ovarian = test system: OVCAR-8 ovarian
UACC-62 melanoma = test system: UACC-62 melanoma
SNB-75 CNS = test system: SNB-75 CNS

`CCCN1C(=O)/C(=c2\sc3n(c2=O)C2C(NN=3)N(CC)C(=O)N2CC)c2ccccc21` (centres undefined) was tested, and the GI50 (HOP-62 NSCLC) was 0.562 µM, the TGI (HOP-62 NSCLC) was 16 µM and the GI50 (RPMI-8226 leukemia) was 0.427 µM. For the same compound, the TGI (RPMI-8226 leukemia) was 6.48 µM, the GI50 (OVCAR-5 ovarian) was 1.14 µM and the TGI (OVCAR-5 ovarian) was 24.1 µM. The GI50 (NCI/ADR-RES ovarian) was 0.366 µM, the TGI (NCI/ADR-RES ovarian) was 10.9 µM and the GI50 (LOX IMVI melanoma) was 0.629 µM. The TGI (LOX IMVI melanoma) was 18.8 µM, the GI50 (NCI-H226 lung) was 1.45 µM and the TGI (NCI-H226 lung) was over 33 µM. The GI50 (HCT-116 colon) was 0.404 µM, the TGI (HCT-116 colon) was 12.4 µM and the GI50 (OVCAR-8 ovarian) was 0.688 µM. For the same compound, the TGI (OVCAR-8 ovarian) was 12.3 µM, the GI50 (UACC-62 melanoma) was 0.489 µM and the TGI (UACC-62 melanoma) was 17.4 µM. It also gave a GI50 (SNB-75 CNS) of 0.199 µM and a TGI (SNB-75 CNS) of 0.79 µM.
Work on `C[C@]12CC[C@H]3[C@@H](CCC4=CC(=O)CC[C@@H]43)[C@@H]1CC[C@@H]2OC(=O)N(CCCl)N=O` yielded a GI50 (HOP-62 NSCLC) of 3.17 µM, a TGI (HOP-62 NSCLC) of 26.1 µM and a GI50 (RPMI-8226 leukemia) of 0.983 µM. The GI50 (OVCAR-5 ovarian) was 20.8 µM, the TGI (OVCAR-5 ovarian) was 49.9 µM and the GI50 (NCI/ADR-RES ovarian) was 2.96 µM. The TGI (NCI/ADR-RES ovarian) was 31.9 µM, the GI50 (LOX IMVI melanoma) was 1.1 µM and the TGI (LOX IMVI melanoma) was 23.9 µM. It also gave a GI50 (NCI-H226 lung) of 14 µM, a TGI (NCI-H226 lung) of 34.1 µM and a GI50 (HCT-116 colon) of 3.92 µM. For the same compound, the TGI (HCT-116 colon) was 19.2 µM, the GI50 (OVCAR-8 ovarian) was 5.91 µM and the TGI (OVCAR-8 ovarian) was 51.9 µM. It also gave a GI50 (UACC-62 melanoma) of 0.413 µM, a TGI (UACC-62 melanoma) of 18.1 µM and a GI50 (SNB-75 CNS) of 0.317 µM. The TGI (SNB-75 CNS) was 16.4 µM.
For `CC(=O)OC1c2ccccc2CC2(OC(C)=O)c3ccccc3C12` (centres undefined), the TGI (HOP-62 NSCLC) was over 100 µM, the TGI (RPMI-8226 leukemia) was over 100 µM and the TGI (OVCAR-5 ovarian) was over 100 µM. The TGI (NCI/ADR-RES ovarian) was over 100 µM, the TGI (LOX IMVI melanoma) was over 100 µM and the TGI (NCI-H226 lung) was over 100 µM. The TGI (HCT-116 colon) was over 100 µM, the TGI (OVCAR-8 ovarian) was over 100 µM and the TGI (UACC-62 melanoma) was over 100 µM. The TGI (SNB-75 CNS) was over 100 µM.
`CSc1nnc(CCSc2ccnc3c(C(F)(F)F)cccc23)o1` showed a GI50 (HOP-62 NSCLC) of 51.7 µM, a TGI (HOP-62 NSCLC) of over 100 µM and a GI50 (RPMI-8226 leukemia) of 33.5 µM. For the same compound, the TGI (RPMI-8226 leukemia) was over 100 µM, the GI50 (OVCAR-5 ovarian) was over 100 µM and the TGI (OVCAR-5 ovarian) was over 100 µM. It also gave a GI50 (NCI/ADR-RES ovarian) of 72.2 µM, a TGI (NCI/ADR-RES ovarian) of over 100 µM and a GI50 (LOX IMVI melanoma) of over 100 µM. It also gave a TGI (LOX IMVI melanoma) of over 100 µM, a GI50 (NCI-H226 lung) of over 100 µM and a TGI (NCI-H226 lung) of over 100 µM. It also gave a GI50 (HCT-116 colon) of 66.5 µM, a TGI (HCT-116 colon) of over 100 µM and a GI50 (OVCAR-8 ovarian) of over 100 µM. It also gave a TGI (OVCAR-8 ovarian) of over 100 µM, a GI50 (UACC-62 melanoma) of over 100 µM and a TGI (UACC-62 melanoma) of over 100 µM. For the same compound, the GI50 (SNB-75 CNS) was 19.6 µM and the TGI (SNB-75 CNS) was over 100 µM.
Compound `O=C1C(Cl)=C(N/N=c2/[nH][nH]/c(=N/NC3=C(Cl)C(=O)c4ccccc4C3=O)c3ccccc23)C(=O)c2ccccc21` has a GI50 (HOP-62 NSCLC) of 10.2 µM, a TGI (HOP-62 NSCLC) of 23.2 µM and a GI50 (RPMI-8226 leukemia) of 10.1 µM. For the same compound, the TGI (RPMI-8226 leukemia) was 44.1 µM, the GI50 (OVCAR-5 ovarian) was 18.7 µM and the TGI (OVCAR-5 ovarian) was 39.1 µM. The GI50 (NCI/ADR-RES ovarian) was 21.4 µM, the TGI (NCI/ADR-RES ovarian) was 73.2 µM and the GI50 (LOX IMVI melanoma) was 15.3 µM. The TGI (LOX IMVI melanoma) was 29.9 µM, the GI50 (NCI-H226 lung) was 17.8 µM and the TGI (NCI-H226 lung) was 44 µM. It also gave a GI50 (HCT-116 colon) of 14.3 µM, a TGI (HCT-116 colon) of 32.3 µM and a GI50 (OVCAR-8 ovarian) of 15.4 µM. The TGI (OVCAR-8 ovarian) was 35 µM, the GI50 (SNB-75 CNS) was 1.49 µM and the TGI (SNB-75 CNS) was 15.3 µM.
For `N=C(N)c1nn(C2OC(CO)C(O)C2O)c2nc[nH]c(=O)c12` (centres undefined), the GI50 (HOP-62 NSCLC) was 0.3 µM, the TGI (HOP-62 NSCLC) was 1.14 µM and the GI50 (RPMI-8226 leukemia) was 0.352 µM. For the same compound, the TGI (RPMI-8226 leukemia) was 2.5 µM, the GI50 (OVCAR-5 ovarian) was 2.85 µM and the TGI (OVCAR-5 ovarian) was 14.2 µM. It also gave a GI50 (NCI/ADR-RES ovarian) of 0.321 µM, a TGI (NCI/ADR-RES ovarian) of 1.72 µM and a GI50 (LOX IMVI melanoma) of 0.337 µM. It also gave a TGI (LOX IMVI melanoma) of 1.84 µM, a GI50 (NCI-H226 lung) of 0.611 µM and a TGI (NCI-H226 lung) of 3.74 µM. For the same compound, the GI50 (HCT-116 colon) was 0.347 µM, the TGI (HCT-116 colon) was 1.29 µM and the GI50 (OVCAR-8 ovarian) was 0.435 µM. For the same compound, the TGI (OVCAR-8 ovarian) was 7.22 µM, the GI50 (UACC-62 melanoma) was 0.431 µM and the TGI (UACC-62 melanoma) was 1.63 µM. The GI50 (SNB-75 CNS) was 1.48 µM and the TGI (SNB-75 CNS) was 7.27 µM.
Work on `N#CSc1ncnc2nc[nH]c12` yielded a GI50 (HOP-62 NSCLC) of 2.31 µM, a TGI (HOP-62 NSCLC) of over 100 µM and a GI50 (RPMI-8226 leukemia) of 4.13 µM. The TGI (RPMI-8226 leukemia) was over 100 µM, the GI50 (OVCAR-5 ovarian) was 17.2 µM and the TGI (OVCAR-5 ovarian) was over 100 µM. It also gave a GI50 (NCI/ADR-RES ovarian) of 5.68 µM, a TGI (NCI/ADR-RES ovarian) of over 100 µM and a GI50 (LOX IMVI melanoma) of 1.09 µM. The TGI (LOX IMVI melanoma) was over 91.6 µM, the GI50 (NCI-H226 lung) was over 100 µM and the TGI (NCI-H226 lung) was over 100 µM. It also gave a GI50 (HCT-116 colon) of 3.04 µM, a TGI (HCT-116 colon) of over 100 µM and a GI50 (OVCAR-8 ovarian) of 5.72 µM. It also gave a TGI (OVCAR-8 ovarian) of over 100 µM, a GI50 (UACC-62 melanoma) of 4.1 µM and a TGI (UACC-62 melanoma) of over 100 µM. The GI50 (SNB-75 CNS) was 7.19 µM and the TGI (SNB-75 CNS) was over 100 µM.
With `COc1cc2nc(Cl)nc(Nc3cccc(C(=O)/C=C/c4ccccc4)c3)c2cc1OC` the GI50 (HOP-62 NSCLC) was 3.71 µM, the TGI (HOP-62 NSCLC) was 31.7 µM and the GI50 (RPMI-8226 leukemia) was 0.622 µM. The TGI (RPMI-8226 leukemia) was 3.48 µM, the GI50 (OVCAR-5 ovarian) was 8.79 µM and the TGI (OVCAR-5 ovarian) was over 100 µM. For the same compound, the GI50 (NCI/ADR-RES ovarian) was 4.26 µM, the TGI (NCI/ADR-RES ovarian) was over 100 µM and the GI50 (NCI-H226 lung) was 5.81 µM. It also gave a TGI (NCI-H226 lung) of over 100 µM, a GI50 (HCT-116 colon) of 1.62 µM and a TGI (HCT-116 colon) of 5.16 µM. For the same compound, the GI50 (OVCAR-8 ovarian) was 4.99 µM, the TGI (OVCAR-8 ovarian) was over 100 µM and the GI50 (UACC-62 melanoma) was 2.55 µM. The TGI (UACC-62 melanoma) was 10.1 µM, the GI50 (SNB-75 CNS) was 2.06 µM and the TGI (SNB-75 CNS) was 8.61 µM.
Compound `CN(C)c1ccc2nc3ccc(=[N+](C)C)cc-3oc2c1` has a GI50 (HOP-62 NSCLC) of 3.58 µM, a TGI (HOP-62 NSCLC) of 50.5 µM and a GI50 (RPMI-8226 leukemia) of 0.684 µM. It also gave a TGI (RPMI-8226 leukemia) of 21 µM, a GI50 (NCI/ADR-RES ovarian) of 12.1 µM and a TGI (NCI/ADR-RES ovarian) of 97.9 µM. For the same compound, the GI50 (LOX IMVI melanoma) was 2.32 µM, the TGI (LOX IMVI melanoma) was 9.28 µM and the GI50 (NCI-H226 lung) was 2.1 µM. For the same compound, the TGI (NCI-H226 lung) was 6.76 µM, the GI50 (HCT-116 colon) was 0.892 µM and the TGI (HCT-116 colon) was 12.1 µM. For the same compound, the GI50 (OVCAR-8 ovarian) was 2.13 µM, the TGI (OVCAR-8 ovarian) was 7.36 µM and the GI50 (UACC-62 melanoma) was 2.32 µM. It also gave a TGI (UACC-62 melanoma) of 19.2 µM, a GI50 (SNB-75 CNS) of 2.63 µM and a TGI (SNB-75 CNS) of 17.1 µM.
Compound `CC1Oc2cc3c(-c4c(O)cc(O)c5c(O)c6c(cc45)OC(C)C(C)C6=O)c(O)cc(O)c3c(O)c2C(=O)C1C` (centres undefined) has a TGI (HOP-62 NSCLC) of 1.23 µM, a TGI (RPMI-8226 leukemia) of 0.469 µM and a TGI (OVCAR-5 ovarian) of 6.32 µM. For the same compound, the TGI (NCI/ADR-RES ovarian) was 1.39 µM, the TGI (NCI-H226 lung) was 0.89 µM and the TGI (HCT-116 colon) was 0.289 µM. It also gave a TGI (OVCAR-8 ovarian) of 1.4 µM, a TGI (UACC-62 melanoma) of 1.34 µM and a TGI (SNB-75 CNS) of 0.557 µM.
In the case of `CN(C)CCNC(=O)c1cccn2c(=O)c3cc4ccccc4cc3nc12`, the GI50 (HOP-62 NSCLC) was 0.0784 µM, the TGI (HOP-62 NSCLC) was 0.554 µM and the GI50 (RPMI-8226 leukemia) was 0.24 µM. The GI50 (OVCAR-5 ovarian) was 0.217 µM, the TGI (OVCAR-5 ovarian) was 13.7 µM and the GI50 (NCI/ADR-RES ovarian) was 0.101 µM. It also gave a TGI (NCI/ADR-RES ovarian) of 0.468 µM, a GI50 (LOX IMVI melanoma) of 0.0624 µM and a TGI (LOX IMVI melanoma) of 0.286 µM. For the same compound, the GI50 (NCI-H226 lung) was 0.145 µM, the TGI (NCI-H226 lung) was 2.99 µM and the GI50 (OVCAR-8 ovarian) was 0.0577 µM. It also gave a TGI (OVCAR-8 ovarian) of over 69.6 µM, a GI50 (UACC-62 melanoma) of 0.194 µM and a TGI (UACC-62 melanoma) of 1.37 µM. For the same compound, the GI50 (SNB-75 CNS) was 0.28 µM and the TGI (SNB-75 CNS) was 1.77 µM.
